Data from US20240067693A1, “POLYPEPTIDES AND USES THEREOF” (MEDIMMUNE LIMITED, priority 2020, published 2024).
Numbered stars: 1 amine (or outer) side, 2 acyl side, 3 side chain; on linkers, the order of the positions; unused ones are H or OH. Bridge positions count the residues as written; N and C are the ends. Square brackets hold non-standard residues; d marks the D form. Side chains are listed from the residue outwards. Peptide text beside a SMILES is read from it. * marks the point of attachment. C18 diacid = O=C(O)CCCCCCCCCCCCCCCCC(=O)*; γGlu = O=C(O)[C@H](CCC(=O)[*:2])N[*:1]; Aib = CC(C)(N)C(=O)O

Legend:
[1] = target: T1, human amylin receptor (calcitonin receptor co-expressed with receptor activity modifying protein, RAMP3) (hAMYR3) (Homo sapiens, UniProt O60896+P30988); assay: cAMP production in 1321N1 cells with stable recombinant expression of human amylin receptor (hAMYR3); assay type: cell-based; conditions: for Ratio (selectivity hAMYR vs hCTR, ratio of EC50 values at the two receptors): EC50 hCTR / EC50 hAMYR3; for EC50: cAMP, 1321N1 cells, assay buffer with 0.1% BSA, read-out: EC50 (pM) hAMYR3
T1 construct: expressed in transfected cells
T1 sequence (P30988 25-474): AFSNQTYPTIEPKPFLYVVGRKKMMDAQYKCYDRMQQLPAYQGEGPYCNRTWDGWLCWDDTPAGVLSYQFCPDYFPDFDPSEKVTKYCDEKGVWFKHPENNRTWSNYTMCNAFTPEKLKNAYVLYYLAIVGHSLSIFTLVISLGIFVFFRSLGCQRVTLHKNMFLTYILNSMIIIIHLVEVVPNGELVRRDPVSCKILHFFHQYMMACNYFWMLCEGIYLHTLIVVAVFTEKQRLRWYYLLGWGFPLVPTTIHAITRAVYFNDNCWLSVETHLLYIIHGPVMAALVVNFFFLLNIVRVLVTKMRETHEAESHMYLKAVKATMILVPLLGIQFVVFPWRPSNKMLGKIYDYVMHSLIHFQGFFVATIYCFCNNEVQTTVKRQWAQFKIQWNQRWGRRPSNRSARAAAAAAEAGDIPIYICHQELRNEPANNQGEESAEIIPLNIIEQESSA
T1 sequence (O60896 24-148 partner): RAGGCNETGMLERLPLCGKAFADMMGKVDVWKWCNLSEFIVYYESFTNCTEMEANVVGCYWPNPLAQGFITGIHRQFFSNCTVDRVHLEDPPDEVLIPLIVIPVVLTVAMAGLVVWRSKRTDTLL
Procedure, shortened: (§1)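 Receptor-expressing cells (human receptors in 1321N1, rat receptors in HEK) incubated 30 min at room temperature with peptide in HBSS/HEPES pH 7.4, 0.1% BSA, 0.5 mM IBMX. cAMP read by HTRF; EC50 from 4-parameter fit as % of maximal amylin or calcitonin response.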

[2] = target: T2, human calcitonin receptor (hCTR) (Homo sapiens, UniProt P30988); assay: cAMP production in 1321N1 cells with stable recombinant expression of human calcitonin receptor (hCTR); assay type: cell-based; conditions: cAMP, 1321N1 cells, assay buffer with 0.1% BSA; read-out: EC50 (pM) hCTR
T2 construct: expressed in transfected cells
T2 sequence (P30988 25-474): T1 sequence (P30988 25-474)
Procedure, shortened: as §1

SMILES | Ratio (selectivity hAMYR vs hCTR, ratio of EC50 values at the two receptors) [1] | EC50 [1] | EC50 [2]
CC(C)C[C@H](NC(=O)[C@H](CCCNC(=N)N)NC(=O)[C@H](CCC(N)=O)NC(=O)[C@@H](NC(=O)[C@H](C)NC(=O)[C@@H]1CSSC[C@H](NC(=O)[C@H](CCCCN)NC(=O)[C@@H](N)CCCCNC(=O)CC[C@H](NC(=O)CCCCCCCCCCCCCCCCC(=O)O)C(=O)O)C(=O)N[C@@H](CC(N)=O)C(=O)N[C@@H]([C@@H](C)O)C(=O)N[C@@H](C)C(=O)N[C@@H]([C@@H](C)O)C(=O)N1)[C@@H](C)O)C(=O)N[C@@H](C)C(=O)N[C@@H](CC(N)=O)C(=O)N[C@@H](Cc1ccccc1)C(=O)N[C@@H](CC(C)C)C(=O)N[C@H](C(=O)N[C@@H](Cc1c[nH]cn1)C(=O)N[C@@H](CO)C(=O)N[C@@H](CO)C(=O)N[C@@H](CC(N)=O)C(=O)N[C@@H](CC(N)=O)C(=O)N[C@@H](Cc1ccccc1)C(=O)NCC(=O)N1CCC[C@H]1C(=O)NC(C)(C)C(=O)N[C@@H](CC(C)C)C(=O)N1CCC[C@H]1C(=O)N1CCC[C@H]1C(=O)N[C@H](C(=O)N[C@@H](CC(N)=O)C(=O)N[C@H](C(=O)NCC(=O)N[C@@H](CO)C(=O)N[C@@H](CC(N)=O)C(=O)N[C@H](C(=O)N[C@@H](Cc1ccc(O)cc1)C(N)=O)[C@@H](C)O)C(C)C)[C@@H](C)O)C(C)C [Peptide 106, K(γE-C18diacid)K[CNTATC]ATQRLANFLVHSSNNFGP(Aib)LPPTNVGSNTY-amide] (H-K([γGlu-C18 diacid])KCNTATCATQRLANFLVHSSNNFGP[Aib]LPPTNVGSNTY-NH2; disulfide 3-8; N-terminus assumed) | 7 | 473 pM | 3420 pM
CC(C)C[C@H](NC(=O)[C@H](CCCNC(=N)N)NC(=O)[C@H](CCC(N)=O)NC(=O)[C@@H](NC(=O)[C@H](C)NC(=O)[C@@H]1CSSC[C@H](NC(=O)[C@H](CCCCN)NC(=O)[C@@H](N)CCCCNC(=O)CC[C@H](NC(=O)CCCCCCCCCCCCCCCCC(=O)O)C(=O)O)C(=O)N[C@@H](CC(N)=O)C(=O)N[C@@H]([C@@H](C)O)C(=O)N[C@@H](C)C(=O)N[C@@H]([C@@H](C)O)C(=O)N1)[C@@H](C)O)C(=O)N[C@@H](C)C(=O)N[C@@H](CC(N)=O)C(=O)N[C@@H](Cc1ccccc1)C(=O)N[C@@H](CC(C)C)C(=O)N[C@@H](CCCNC(=N)N)C(=O)N[C@@H](Cc1c[nH]cn1)C(=O)N[C@@H](CO)C(=O)N[C@@H](CO)C(=O)N[C@@H](CC(N)=O)C(=O)N[C@@H](CC(N)=O)C(=O)N[C@@H](Cc1ccccc1)C(=O)NCC(=O)N1CCC[C@H]1C(=O)NC(C)(C)C(=O)N[C@@H](CC(C)C)C(=O)N1CCC[C@H]1C(=O)N1CCC[C@H]1C(=O)N[C@H](C(=O)N[C@@H](CC(N)=O)C(=O)N[C@H](C(=O)NCC(=O)N[C@@H](CO)C(=O)N[C@@H](CC(N)=O)C(=O)N[C@H](C(=O)N[C@@H](Cc1ccc(O)cc1)C(N)=O)[C@@H](C)O)C(C)C)[C@@H](C)O [Peptide 107, K(γE-C18diacid)K[CNTATC]ATQRLANFLRHSSNNFGP(Aib)LPPTNVGSNTY-amide] (H-K([γGlu-C18 diacid])KCNTATCATQRLANFLRHSSNNFGP[Aib]LPPTNVGSNTY-NH2; disulfide 3-8; N-terminus assumed) | 25 | 1070 pM | 26300 pM
CC[C@H](C)[C@H](NC(=O)[C@@H]1CCCN1C(=O)CNC(=O)[C@H](Cc1ccccc1)NC(=O)[C@H](CC(N)=O)NC(=O)[C@H](CC(N)=O)NC(=O)[C@H](CO)NC(=O)[C@H](CO)NC(=O)[C@H](Cc1c[nH]cn1)NC(=O)[C@@H](NC(=O)[C@H](CC(C)C)NC(=O)[C@H](Cc1ccccc1)NC(=O)[C@H](CC(N)=O)NC(=O)[C@H](C)NC(=O)[C@H](CC(C)C)NC(=O)[C@H](CCCNC(=N)N)NC(=O)[C@H](CCC(N)=O)NC(=O)[C@@H](NC(=O)[C@H](C)NC(=O)[C@@H]1CSSC[C@H](NC(=O)[C@H](CCCCN)NC(=O)[C@@H](N)CCCCNC(=O)CC[C@H](NC(=O)CCCCCCCCCCCCCCCCC(=O)O)C(=O)O)C(=O)N[C@@H](CC(N)=O)C(=O)N[C@@H]([C@@H](C)O)C(=O)N[C@@H](C)C(=O)N[C@@H]([C@@H](C)O)C(=O)N1)[C@@H](C)O)C(C)C)C(=O)NC(C)(C)C(=O)N1CCC[C@H]1C(=O)N1CCC[C@H]1C(=O)N[C@H](C(=O)N[C@@H](CC(N)=O)C(=O)N[C@H](C(=O)NCC(=O)N[C@@H](CO)C(=O)N[C@@H](CC(N)=O)C(=O)N[C@H](C(=O)N[C@@H](Cc1ccc(O)cc1)C(N)=O)[C@@H](C)O)C(C)C)[C@@H](C)O [Peptide 108, K(γE-C18diacid)K[CNTATC]ATQRLANFLVHSSNNFGPI(Aib)PPTNVGSNTY-amide] (H-K([γGlu-C18 diacid])KCNTATCATQRLANFLVHSSNNFGPI[Aib]PPTNVGSNTY-NH2; disulfide 3-8; N-terminus assumed) | 8 | 801 pM | 6810 pM
CC[C@H](C)[C@H](NC(=O)[C@@H]1CCCN1C(=O)CNC(=O)[C@H](Cc1ccccc1)NC(=O)C(C)(C)NC(=O)[C@H](CC(N)=O)NC(=O)[C@H](CO)NC(=O)[C@H](CO)NC(=O)[C@H](Cc1c[nH]cn1)NC(=O)[C@@H](NC(=O)[C@H](CC(C)C)NC(=O)[C@H](Cc1ccccc1)NC(=O)[C@H](CC(N)=O)NC(=O)[C@H](C)NC(=O)[C@H](CC(C)C)NC(=O)[C@H](CCCNC(=N)N)NC(=O)[C@H](CCC(N)=O)NC(=O)[C@@H](NC(=O)[C@H](C)NC(=O)[C@@H]1CSSC[C@H](NC(=O)[C@H](CCCCN)NC(=O)[C@@H](N)CCCCNC(=O)CC[C@H](NC(=O)CCCCCCCCCCCCCCCCC(=O)O)C(=O)O)C(=O)N[C@@H](CC(N)=O)C(=O)N[C@@H]([C@@H](C)O)C(=O)N[C@@H](C)C(=O)N[C@@H]([C@@H](C)O)C(=O)N1)[C@@H](C)O)C(C)C)C(=O)N[C@@H](CC(C)C)C(=O)N1CCC[C@H]1C(=O)N1CCC[C@H]1C(=O)N[C@H](C(=O)N[C@@H](CC(N)=O)C(=O)N[C@H](C(=O)NCC(=O)N[C@@H](CO)C(=O)N[C@@H](CC(N)=O)C(=O)N[C@H](C(=O)N[C@@H](Cc1ccc(O)cc1)C(N)=O)[C@@H](C)O)C(C)C)[C@@H](C)O [Peptide 109, K(γE-C18diacid)K[CNTATC]ATQRLANFLVHSSN(Aib)FGPILPPTNVGSNTY-amide] (H-K([γGlu-C18 diacid])KCNTATCATQRLANFLVHSSN[Aib]FGPILPPTNVGSNTY-NH2; disulfide 3-8; N-terminus assumed) | 2 | 82 pM | 176 pM
CC[C@H](C)[C@H](NC(=O)[C@@H]1CCCN1C(=O)C(C)(C)NC(=O)[C@H](Cc1ccccc1)NC(=O)[C@H](CC(N)=O)NC(=O)[C@H](CC(N)=O)NC(=O)[C@H](CO)NC(=O)[C@H](CO)NC(=O)[C@H](Cc1c[nH]cn1)NC(=O)[C@@H](NC(=O)[C@H](CC(C)C)NC(=O)[C@H](Cc1ccccc1)NC(=O)[C@H](CC(N)=O)NC(=O)[C@H](C)NC(=O)[C@H](CC(C)C)NC(=O)[C@H](CCCNC(=N)N)NC(=O)[C@H](CCC(N)=O)NC(=O)[C@@H](NC(=O)[C@H](C)NC(=O)[C@@H]1CSSC[C@H](NC(=O)[C@H](CCCCN)NC(=O)[C@@H](N)CCCCNC(=O)CC[C@H](NC(=O)CCCCCCCCCCCCCCCCC(=O)O)C(=O)O)C(=O)N[C@@H](CC(N)=O)C(=O)N[C@@H]([C@@H](C)O)C(=O)N[C@@H](C)C(=O)N[C@@H]([C@@H](C)O)C(=O)N1)[C@@H](C)O)C(C)C)C(=O)N[C@@H](CC(C)C)C(=O)N1CCC[C@H]1C(=O)N1CCC[C@H]1C(=O)N[C@H](C(=O)N[C@@H](CC(N)=O)C(=O)N[C@H](C(=O)NCC(=O)N[C@@H](CO)C(=O)N[C@@H](CC(N)=O)C(=O)N[C@H](C(=O)N[C@@H](Cc1ccc(O)cc1)C(N)=O)[C@@H](C)O)C(C)C)[C@@H](C)O [Peptide 110, K(γE-C18diacid)K[CNTATC]ATQRLANFLVHSSNNF(Aib)PILPPTNVGSNTY-amide] (H-K([γGlu-C18 diacid])KCNTATCATQRLANFLVHSSNNF[Aib]PILPPTNVGSNTY-NH2; disulfide 3-8; N-terminus assumed) | 3 | 204 pM | 541 pM
